≈ marks a conversion by molar mass, not a printed value.
Key:
[1] = system: Vero; experiment: Cytotoxicity in African green monkey Vero cells assessed as reduction in cell viability; type: toxicity, cell-based; settings: chlorocebus sabaeus
[2] = system: Mycobacterium tuberculosis; experiment: Antimycobacterial activity against Mycobacterium tuberculosis H37Rv; type: functional

| Structure (SMILES) | Activity [1] | MIC [2] |
| --- | --- | --- |
| Cn1ccnc1NC(=O)c1cc(C(N)=S)ccn1 | > 100 µM | 15.1 µM (≈ 3.95 µg/mL) |
| Cc1ccc2c(c1)nc(NC(=O)c1cc(C(N)=S)ccn1)n2C | > 100 µM | 3.14 µM (≈ 1.02 µg/mL) |
| COc1ccc2c(c1)nc(NC(=O)c1cc(C(N)=S)ccn1)n2C | > 100 µM | 0.35 µM (≈ 0.119 µg/mL) |
| Cc1cn(C)c(NC(=O)c2cc(C(N)=S)ccn2)n1 | > 100 µM | 13.6 µM (≈ 3.75 µg/mL) |
| Cn1c(NC(=O)c2cc(C(N)=S)ccn2)nc2cc(O)ccc21 | > 100 µM | 0.27 µM (≈ 0.0884 µg/mL) |
| Cn1cc(O)nc1NC(=O)c1cc(C(N)=S)ccn1 | > 100 µM | 0.97 µM (≈ 0.269 µg/mL) |
| NC(=S)c1ccnc(C(=O)Nc2nc3ccccc3[nH]2)c1 | > 100 µM | 12.6 µM (≈ 3.73 µg/mL) |
| Cn1c(NC(=O)c2cc(C(N)=S)ccn2)nc2ccccc21 | > 100 µM | 6.52 µM (≈ 2.03 µg/mL) |
| NC(=S)c1ccnc(C(=O)Nc2ncc[nH]2)c1 | > 100 µM | 23.8 µM (≈ 5.9 µg/mL) |
| Cn1cc(C#N)nc1NC(=O)c1cc(C(N)=S)ccn1 | > 100 µM | 1.24 µM (≈ 0.355 µg/mL) |
| O=C(O)c1cn(C2CC2)c2cc(N3CCNCC3)c(F)cc2c1=O [CIPROFLOXACIN] | > 100 µM | 4.73 µM (≈ 1.57 µg/mL) |
| CC[C@@H](CO)NCCN[C@@H](CC)CO [ETHAMBUTOL] | > 100 µM | 5.01 µM (≈ 1.02 µg/mL) |
| CCc1cc(C(N)=S)ccn1 [ETHIONAMIDE] | > 100 µM | 6.63 µM (≈ 1.1 µg/mL) |
| NNC(=O)c1ccncc1 [ISONIAZID] | > 100 µM | 0.36 µM (≈ 0.0494 µg/mL) |
| NC(=O)c1cnccn1 [PYRAZINAMIDE] | > 100 µM | 3.12 µM (≈ 0.384 µg/mL) |

— ChEMBL document CHEMBL5143581, “Design, synthesis and molecular docking studies of imidazole and benzimidazole linked ethionamide derivatives as inhibitors of InhA and antituberculosis agents” (Bioorg Med Chem Lett, 2022)
